Test results: US8877741B2, “Pyrrolidine derivatives, pharmaceutical compositions and uses thereof” (Boehringer Ingelheim International GmbH, priority 2013, dated 2014)

Target: human ACC2 (Homo sapiens (Human), UniProt O00763)
Assay: ACC2 assay, spectrophotometric 384 well assay (NADH-linked kinetic method)
Assay type: biochemical
Settings: human ACC2 construct lacking the 128 N-terminal amino acids; coupled lactate dehydrogenase/pyruvate kinase reaction, 340 nm, 25° C.
Procedure, shortened: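 ADP formation was monitored as NADH consumption at 340 nm for 15 min at 25 °C, using baculovirus-expressed human ACC2 missing its first 128 amino acids, with 500 μM ATP and 2000 μM each of acetyl-CoA and NADH (final). IC50 was fitted by non-linear regression on low-control-subtracted slopes.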

Sequence of human ACC2 (O00763 129-2458): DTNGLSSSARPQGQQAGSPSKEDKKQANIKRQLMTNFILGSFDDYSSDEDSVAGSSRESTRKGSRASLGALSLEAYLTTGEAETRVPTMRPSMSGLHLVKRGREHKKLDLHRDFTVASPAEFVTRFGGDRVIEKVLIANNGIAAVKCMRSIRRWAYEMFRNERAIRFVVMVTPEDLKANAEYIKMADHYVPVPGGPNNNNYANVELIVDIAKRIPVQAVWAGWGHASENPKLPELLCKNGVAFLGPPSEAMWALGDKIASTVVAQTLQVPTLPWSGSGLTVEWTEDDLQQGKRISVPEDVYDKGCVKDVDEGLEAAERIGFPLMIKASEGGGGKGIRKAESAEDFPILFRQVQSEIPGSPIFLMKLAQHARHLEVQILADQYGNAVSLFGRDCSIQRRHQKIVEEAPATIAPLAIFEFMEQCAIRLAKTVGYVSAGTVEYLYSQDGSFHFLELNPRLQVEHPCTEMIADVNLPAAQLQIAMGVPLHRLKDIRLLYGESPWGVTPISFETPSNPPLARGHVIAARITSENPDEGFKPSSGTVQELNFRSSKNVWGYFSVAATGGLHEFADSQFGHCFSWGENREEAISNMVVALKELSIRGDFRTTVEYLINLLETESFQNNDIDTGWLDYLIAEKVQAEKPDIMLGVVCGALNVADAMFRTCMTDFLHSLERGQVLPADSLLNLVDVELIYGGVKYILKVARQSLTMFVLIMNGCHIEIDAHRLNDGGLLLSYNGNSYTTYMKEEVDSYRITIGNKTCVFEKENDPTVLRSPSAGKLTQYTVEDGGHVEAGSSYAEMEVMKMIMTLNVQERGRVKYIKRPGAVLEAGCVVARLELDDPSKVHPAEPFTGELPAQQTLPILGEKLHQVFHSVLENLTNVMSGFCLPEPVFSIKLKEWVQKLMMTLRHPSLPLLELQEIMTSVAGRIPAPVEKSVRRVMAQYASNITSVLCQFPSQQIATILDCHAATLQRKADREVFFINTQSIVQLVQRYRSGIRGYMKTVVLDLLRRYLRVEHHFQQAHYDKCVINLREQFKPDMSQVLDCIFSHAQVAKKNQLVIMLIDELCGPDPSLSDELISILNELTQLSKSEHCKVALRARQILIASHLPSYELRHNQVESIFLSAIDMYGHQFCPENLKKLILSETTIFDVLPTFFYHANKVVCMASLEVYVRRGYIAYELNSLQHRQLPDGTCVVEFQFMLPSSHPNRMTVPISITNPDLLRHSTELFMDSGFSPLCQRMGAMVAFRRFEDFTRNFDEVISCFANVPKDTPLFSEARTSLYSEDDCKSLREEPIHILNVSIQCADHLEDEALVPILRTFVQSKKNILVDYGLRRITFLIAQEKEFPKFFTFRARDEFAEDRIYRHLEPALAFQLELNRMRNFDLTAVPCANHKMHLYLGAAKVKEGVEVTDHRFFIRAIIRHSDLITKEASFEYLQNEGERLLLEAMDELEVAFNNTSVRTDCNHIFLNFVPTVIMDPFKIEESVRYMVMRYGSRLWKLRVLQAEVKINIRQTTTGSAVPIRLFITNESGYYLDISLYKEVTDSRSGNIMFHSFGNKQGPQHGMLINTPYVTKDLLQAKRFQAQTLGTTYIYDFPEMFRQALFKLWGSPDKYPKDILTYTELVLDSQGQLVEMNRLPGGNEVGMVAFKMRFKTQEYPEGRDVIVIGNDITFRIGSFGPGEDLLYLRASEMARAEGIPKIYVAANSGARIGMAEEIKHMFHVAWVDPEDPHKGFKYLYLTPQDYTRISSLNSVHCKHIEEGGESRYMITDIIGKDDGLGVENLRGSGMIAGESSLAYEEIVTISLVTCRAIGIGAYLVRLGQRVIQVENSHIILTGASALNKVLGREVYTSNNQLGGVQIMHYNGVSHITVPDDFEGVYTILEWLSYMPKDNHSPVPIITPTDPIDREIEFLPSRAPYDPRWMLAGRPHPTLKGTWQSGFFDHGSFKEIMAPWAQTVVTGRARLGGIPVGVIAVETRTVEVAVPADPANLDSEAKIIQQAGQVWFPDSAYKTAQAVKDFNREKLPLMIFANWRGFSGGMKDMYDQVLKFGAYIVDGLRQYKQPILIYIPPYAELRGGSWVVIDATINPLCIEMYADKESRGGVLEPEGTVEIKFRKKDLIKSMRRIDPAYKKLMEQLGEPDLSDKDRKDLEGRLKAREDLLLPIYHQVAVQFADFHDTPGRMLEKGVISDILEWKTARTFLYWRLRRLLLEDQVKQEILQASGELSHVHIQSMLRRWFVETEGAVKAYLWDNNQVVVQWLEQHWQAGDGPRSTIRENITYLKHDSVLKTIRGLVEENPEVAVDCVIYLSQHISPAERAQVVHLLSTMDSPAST

SMILES | IC50 [nM]
CC(=O)N[C@@H](C)c1ccc(O[C@@H]2CCN(c3cccc(N4CCCC4)n3)C2)cc1 [Example 10.3] | 153
CC(=O)N[C@@H](C)c1ccc(O[C@@H]2CCN(c3cccc(N4CCCCC4)n3)C2)cc1 [Example 10.4] | 261
CC(=O)N[C@@H](C)c1ccc(O[C@@H]2CCN(c3nc(N4CCCCC4)c(F)cc3F)C2)cc1 [Example 10.6] | 827
CCCN(C)c1nc(N2CC[C@@H](Oc3ccc([C@H](C)NC(C)=O)cc3)C2)c(F)cc1F [Example 10.7] | 505
CC(=O)N[C@@H](C)c1ccc(O[C@@H]2CCN(c3nc(N4CCCC4)c(F)cc3F)C2)cc1 [Example 10.8] | 594
CC(=O)N[C@@H](C)c1ccc(O[C@@H]2CCN(c3ccnc(N(C)C4CCCC4)c3)C2)cc1 [Example 10.9] | 849
CC(=O)N[C@@H](C)c1ccc(O[C@@H]2CCN(c3cccc(N4CCC(C)C4)n3)C2)cc1 (some centres unmarked) [Example 10.10] | 115
CC(=O)N[C@@H](C)c1ccc(O[C@@H]2CCN(c3cccc(N4CCOCC4)n3)C2)cc1 [Example 10.13] | 498
CCN(C)c1nccc(N2CC[C@@H](Oc3ccc([C@H](C)NC(C)=O)cc3)C2)c1F [Example 10.14] | 45
CC(=O)N[C@@H](C)c1ccc(O[C@@H]2CCN(c3ccnc(N4CCOCC4)c3F)C2)cc1 [Example 10.15] | 150
CC(=O)N[C@@H](C)c1ccc(O[C@@H]2CCN(c3ccnc(N4CCCC4)c3F)C2)cc1 [Example 10.16] | 35
CC(=O)N[C@@H](C)c1ccc(O[C@@H]2CCN(c3ccnc(N(C)C)c3F)C2)cc1 [Example 10.17] | 97
CC(=O)N[C@@H](C)c1ccc(O[C@@H]2CCN(c3nc(N(C)C)ccc3F)C2)cc1 [Example 10.18] | 855
CC(=O)N[C@@H](C)c1ccc(O[C@@H]2CCN(c3cc(N4CCCC4)ncc3F)C2)cc1 [Example 10.20] | 167
CC(=O)N[C@@H](C)c1ccc(O[C@@H]2CCN(c3cc(N4CCOCC4)ncc3F)C2)cc1 [Example 10.22] | 552
CCN(C)c1cc(N2CC[C@@H](Oc3ccc([C@H](C)NC(C)=O)cc3)C2)c(F)cn1 [Example 10.23] | 87
CC(=O)N[C@@H](C)c1ccc(O[C@@H]2CCN(c3cc(N(C)C)ncc3F)C2)cc1 [Example 10.24] | 285
CC(=O)N[C@@H](C)c1ccc(O[C@@H]2CCN(c3cc(NCC4CC4)ncc3F)C2)cc1 [Example 10.26] | 755
CC(=O)N[C@@H](C)c1ccc(O[C@@H]2CCN(c3cccc(N4CCC5(CC5)C4)n3)C2)cc1 [Example 10.32] | 245
CC(=O)N[C@@H](C)c1ccc(O[C@@H]2CCN(c3cccc(N4CCC(F)(F)CC4)n3)C2)cc1 [Example 10.34] | 464
COC1CCCN(c2cccc(N3CC[C@@H](Oc4ccc([C@H](C)NC(C)=O)cc4)C3)n2)C1 (some centres unmarked) [Example 10.37] | 325
CC(=O)N[C@@H](C)c1ccc(O[C@@H]2CCN(c3cccc(N4CCOC(C)(C)C4)n3)C2)cc1 [Example 10.38] | 369

SMILES | IC50 [nM]
CC(=O)N[C@@H](C)c1ccc(O[C@@H]2CCN(c3cccc(N4CCCOCC4)n3)C2)cc1 [Example 10.40] | 528
COC[C@H]1CCCN1c1cccc(N2CC[C@@H](Oc3ccc([C@H](C)NC(C)=O)cc3)C2)n1 [Example 10.41] | 1020
COC1CCN(c2cccc(N3CC[C@@H](Oc4ccc([C@H](C)NC(C)=O)cc4)C3)n2)CC1 [Example 10.42] | 759
CC(=O)N[C@@H](C)c1ccc(O[C@@H]2CCN(c3cccc(N4CC=CC4)n3)C2)cc1 [Example 10.44] | 665
COC[C@@H]1CCCN1c1cccc(N2CC[C@@H](Oc3ccc([C@H](C)NC(C)=O)cc3)C2)n1 [Example 10.46] | 175
CC(=O)N[C@@H](C)c1ccc(O[C@@H]2CCN(c3cccc(N4CCC(C)(O)C4)n3)C2)cc1 (some centres unmarked) [Example 10.47] | 455
CC(=O)N[C@@H](C)c1ccc(O[C@@H]2CCN(c3cccc(N4CCOCC4C)n3)C2)cc1 (some centres unmarked) [Example 10.49] | 785
CC(=O)N[C@@H](C)c1ccc(O[C@@H]2CCN(c3ccnc(NCC4(O)CCC4)c3F)C2)cc1 [Example 10.50] | 53
CC(=O)N[C@@H](C)c1ccc(O[C@@H]2CCN(c3ccnc(NCC(C)(C)O)c3Cl)C2)cc1 [Example 10.51] | 65
CC(=O)N[C@@H](C)c1ccc(O[C@@H]2CCN(c3ccnc(N4CCC(C)(O)C4)c3F)C2)cc1 (some centres unmarked) [Example 10.52] | 80
CC(=O)N[C@@H](C)c1ccc(O[C@@H]2CCN(c3ccnc(NCC(C)(C)O)c3F)C2)cc1 [Example 10.53] | 215
CC(=O)N[C@@H](C)c1ccc(O[C@@H]2CCN(c3ccnc(N4CCC(C)(O)C4)c3Cl)C2)cc1 (some centres unmarked) [Example 10.54] | 114
CC(=O)N[C@@H](C)c1ccc(O[C@@H]2CCN(c3ccnc(NCC4(O)CCC4)c3Cl)C2)cc1 [Example 10.55] | 57
CC(=O)N[C@@H](C)c1ccc(O[C@@H]2CCN(c3ccc(OCC(F)F)cn3)C2)cc1 [Example 11.1, N—((S)-1-(4-((R)-1-(5-(2,2-Difluoroethoxy)pyridin-2-yl)pyrrolidin-3-yloxy)phenyl)ethyl)acetamide] | 510
CC(=O)N[C@@H](C)c1ccc(O[C@@H]2CCN(c3ccc(OCC(F)(F)C(F)F)cn3)C2)cc1 [Example 11.2] | 870
CC(=O)N[C@@H](C)c1ccc(O[C@@H]2CCN(c3ccc(OCCCF)cn3)C2)cc1 [Example 11.3] | 131
C[C@H](NC=O)c1ccc(O[C@@H]2CCN(c3cccc(C(F)(F)F)n3)C2)cc1 [Example 12, N—((S)-1-(4-((R)-1-(6-(Trifluoromethyl)pyridin-2-yl)pyrrolidin-3-yloxy)phenyl)ethyl) formamide] | 888
Cc1nc(N)sc1C(=O)N[C@@H](C)c1ccc(O[C@@H]2CCN(c3ccc(OCC4CC4(F)F)cn3)C2)cc1 (stereo partly drawn) [Example 13, 2-Amino-N—((1S)-1-(4-((3R)-1-(5-((2,2-difluorocyclopropyl)methoxy)pyridin-2-yl)pyrrolidin-3-yloxy)phenyl)ethyl)-4-methylthiazole-5-carboxamide] | 240
COc1c(N2CC[C@@H](Oc3ccc([C@H](C)NC(C)=O)cc3)C2)ccnc1OCC(F)F [Example 14.1, N—((S)-1-(4-((R)-1-(2-(2,2-Difluoroethoxy)-3-methoxypyridin-4-yl)pyrrolidin-3-yloxy)phenyl)ethyl)acetamide] | 58
COc1c(N2CC[C@@H](Oc3ccc([C@H](C)NC(C)=O)cc3)C2)ccnc1OCC1CC1(F)F (some centres unmarked) [Example 14.2] | 45
CC(=O)N[C@@H](C)c1ccc(O[C@@H]2CCN(c3ccnc(C4CC4)c3F)C2)cc1 [Example 15, N—((S)-1-(4-((R)-1-(2-cyclopropyl-fluoropyridin-4-yl)pyrrolidin-3-yloxy)phenyl)-ethyl)-acetamide] | 245

Continued, values first:

IC50 [nM] | SMILES
208 | CC(=O)N[C@@H](C)c1ccc(O[C@@H]2CCN(c3cccc(N(C)CC4CC4)n3)C2)cc1 [Example 10.2]
182 | CCCN(C)c1cccc(N2CC[C@@H](Oc3ccc([C@H](C)NC(C)=O)cc3)C2)n1 [Example 10.5]
209 | CC(=O)N[C@@H](C)c1ccc(O[C@@H]2CCN(c3cccc(N4CCC4)n3)C2)cc1 [Example 10.11]
691 | CCNc1cccc(N2CC[C@@H](Oc3ccc([C@H](C)NC(C)=O)cc3)C2)n1 [Example 10.12]
35 | CCN(CC)c1nccc(N2CC[C@@H](Oc3ccc([C@H](C)NC(C)=O)cc3)C2)c1F [Example 10.19]
963 | CNc1cccc(N2CC[C@@H](Oc3ccc([C@H](C)NC(C)=O)cc3)C2)n1 [Example 10.21]
331 | CC(=O)N[C@@H](C)c1ccc(O[C@@H]2CCN(c3cccc(N(C)CC4CCOC4)n3)C2)cc1 (some centres unmarked) [Example 10.25]
123 | CCN(CC)c1cccc(N2CC[C@@H](Oc3ccc([C@H](C)NC(C)=O)cc3)C2)n1 [Example 10.27]
142 | COCCN(C)c1cccc(N2CC[C@@H](Oc3ccc([C@H](C)NC(C)=O)cc3)C2)n1 [Example 10.28]
170 | CC(=O)N[C@@H](C)c1ccc(O[C@@H]2CCN(c3cccc(N(C)C4CCCC4)n3)C2)cc1 [Example 10.29]
154 | CCN(C)c1cccc(N2CC[C@@H](Oc3ccc([C@H](C)NC(C)=O)cc3)C2)n1 [Example 10.30]
314 | CC(=O)N[C@@H](C)c1ccc(O[C@@H]2CCN(c3cccc(N(C)C(C)C)n3)C2)cc1 [Example 10.31]
133 | CC(=O)N[C@@H](C)c1ccc(O[C@@H]2CCN(c3cccc(N4CCCC4C)n3)C2)cc1 (some centres unmarked) [Example 10.33]
853 | CC(=O)N[C@@H](C)c1ccc(O[C@@H]2CCN(c3cccc(N(C)CC(C)O)n3)C2)cc1 (some centres unmarked) [Example 10.35]
399 | CC(=O)N[C@@H](C)c1ccc(O[C@@H]2CCN(c3cccc(N(C)CC(C)C)n3)C2)cc1 [Example 10.36]
360 | CC(=O)N[C@@H](C)c1ccc(O[C@@H]2CCN(c3cccc(N(C)C4CCOCC4)n3)C2)cc1 [Example 10.39]
770 | CCN(CCO)c1cccc(N2CC[C@@H](Oc3ccc([C@H](C)NC(C)=O)cc3)C2)n1 [Example 10.43]
165 | CC(=O)N[C@@H](C)c1ccc(O[C@@H]2CCN(c3cccc(N(C)C[C@H]4CCCO4)n3)C2)cc1 [Example 10.45]
256 | CC(=O)N[C@@H](C)c1ccc(O[C@@H]2CCN(c3cccc(N4CCC(C)(C)C4)n3)C2)cc1 [Example 10.48]
